Measurements as given in patent US20260306440A1, “USE OF SMALL MOLECULES TO INCREASE HYPOXIA INDUCIBLE FACTOR (HIF) ACTIVITY” (BROWN UNIVERSITY, priority 2023, published 2026).

Assays:
VEGF [1] = assay: Expression of VEGF protein in SW480 cells treated with compound (FIG. 4); format: cell-based; conditions: normoxia 6 h (FIG. 4)
From the text: (§1) Normoxia refers to a regular cell culture condition at 21% oxygen concentration.

HIF-1α = assay: Expression of HIF-1α protein in cancer cell lines treated with compound (FIGS. 1-4, 29, 30, 32); format: cell-based
From the text: (§2) Hypoxic conditions (0.5% O2) were achieved by culturing cells in a hypoxia chamber (HypOxygen H35 HypOxystation) which controls and maintains a stable level of oxygen, carbon dioxide, temperature and humidity.
as §1

[2] = tested on: erythropoietin (EPO) mRNA; assay: EPO mRNA expression in HCT116 cells by real-time PCR; format: cell-based; conditions: HCT116, normoxia or hypoxia, indicated durations (FIG. 31)
Experimental: Total RNA was extracted from cells using the RNeasy Mini Kit (Qiagen). cDNA was obtained by reverse transcription with random primers using the SuperScript II First-Strand Synthesis System (Invitrogen). Real-time PCR reactions were performed with SYBR Green Master Mix (Applied Biosystems) using the QuantStudio™ 6 Pro Real-Time PCR System.
as §2, §1
Cells were treated for indicated durations in normoxia or hypoxia. Extracted RNA was analyzed by real-time PCR. M: MG132 (5 μM). Statistic analysis: two-way anova+Dunnett's multiple comparisons test.

VEGF [3] = assay: Luciferase reporter assay, VEGF-HRE::dLUC (HCT116 or SW480 stable cell lines); format: cell-based, human
Experimental: (§3) HCT116 or SW480 cells were transfected using lipofectamine 2000 (Invitrogen, USA) with pGL4.22-VEGF-HRE::dLUC or pGL4.22-PGK1-HRE::dLUC plasmids expressing the luciferase reporter with hypoxia response element (HRE) derived from the human PGK1 promoter or the human VEGF promoter (Walton Z. E. et al., Cell. 2018 Jun. 28; 174(1):72-87). Cells were cultured and selected in 2 μg/mL (for HCT116) or 4 μg/mL (for SW480) puromycin-containing DMEM medium (Cytiva HyClone) after 24 h of transfection. Individual clones were picked and expanded. Verification of the luciferase reporter-bearing cells were performed by measuring the bioluminescence in hypoxia upon addition of the substrate (luciferin) using the IVIS imaging system.
(§4) Luciferase-reporter expressing cells were seeded in 96-well black plates at a density of 2~4×10^4 cells/well. Treatment with compounds were performed on the next day for 6 h under normoxia or hypoxia. After substrate (luciferin) addition, plates were imaged for luminescence intensity in the IVIS imaging system.
as §2, §1

PGK1 = assay: Luciferase reporter assay, PGK1-HRE::dLUC (HCT116 or SW480 stable cell lines); format: cell-based, human; conditions: HCT116 and SW480, normoxia and hypoxia, 6 h (FIGS. 5-24)
Experimental: as §3, §4, §2, §1

[4] = hypoxia (0.5% O2), FIG. 2: SW480 cells, 6 h
[5] = normoxia (21% O2), FIGS. 1, 3, 4: SW480, RCC4 cells, 6 h

SMILES | VEGF expression (VEGF [1]) | expression of HIF-1α (HIF-1α; [4]) | expression of HIF-1α (HIF-1α; [5]) | erythropoietin (EPO) mRNA expression [2] | VEGF upregulation as measured by a luciferase assay, despite incubation with siRNA EIF4E (VEGF [3]; HCT116, hypoxia 6 h, two different eIF4E siRNAs for 48 hours (FIG. 26)) | VEGF upregulation as measured by a luciferase assay, despite incubation with siRNA EIF4E (VEGF [3]; HCT116, normoxia 6 h, two different eIF4E siRNAs for 48 hours (FIG. 25)) | expression of VEGF as measured in a luciferase assay (VEGF [3]; HCT116 and SW480, normoxia and hypoxia, 6 h (FIGS. 5-24)) | VEGF upregulation as measured by a luciferase assay, despite incubation with siRNA EIF4E (VEGF [3]; SW480, hypoxia 6 h, two different eIF4E siRNAs for 48 hours (FIG. 28)) | VEGF upregulation as measured by a luciferase assay, despite incubation with siRNA EIF4E (VEGF [3]; SW480, normoxia 6 h, two different eIF4E siRNAs for 48 hours (FIG. 27)) | HIF-1α expression (HIF-1α; HCT116, normoxia, 6, 8 or 10 hours (FIG. 29)) | expression of HIF-1α (HIF-1α; HT29 (colorectal cancer) cells, normoxia 6 h (FIG. 30)) | expression of HIF-1α (HIF-1α; PANC1 (pancreatic cancer) cells, normoxia 6 h (FIG. 30)) | expression of PGK1 as measured in a luciferase assay (PGK1) | HIF-1α expression (HIF-1α; HCT116, hypoxia (FIG. 32)) | HIF-1α expression (HIF-1α; RCC4 renal cell carcinoma cells, normoxia (FIG. 32)) | HIF-1α expression (HIF-1α; SW480, hypoxia (FIG. 32)) | HIF-1α expression (HIF-1α; SW480, normoxia (FIG. 32))
CCc1ccc(/C=C/C(=O)Nc2ccc(C(C)=O)cc2)o1 [Heclin] | increase | increase | increase | – | – | – | – | – | – | – | – | – | – | – | – | – | –
O=C(O)c1ccc(N2C(=O)C(=Cc3ccc(-c4ccc([N+](=O)[O-])cc4)o3)C=C2c2ccccc2)cc1 [4E1Rcat] | increase | increase | increase | increases | upregulated | upregulated | increases | upregulated | upregulated | increases | increases | increases | increases | – | – | – | –
CC1=NN(c2ccc(C(=O)O)cc2)C(=O)/C1=C/c1ccc(-c2cc(C)c(C)cc2[N+](=O)[O-])o1 [C 646] | increase | increase | increase | – | – | – | – | – | – | – | – | – | – | – | – | – | –
CCOC(=O)c1ccc(N2NC(=O)/C(=C/c3ccc([N+](=O)[O-])o3)C2=O)cc1 [PYR 41] | increase | increase | increase | – | – | – | – | – | – | – | – | – | – | increases | increases | increases | increases
